Measurements published in the METLIN SMRT retention time set (Domingo-Almenara et al. 2019).

Experiment: gradient 5% acetonitrile 3 min, to 50% in 2 min, to 85% in 15 min, held 3 min, 100 µL/min
Settings: column: Zorbax Extend-C18 2.1 x 50 mm; eluents: water / acetonitrile, 0.1% formic acid
Outline: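 Standards, all pure, were combined into mixtures of ~100 molecules and run at 100 μL/min on a Zorbax Extend-C18 column (2.1 × 50 mm, 1.8 μm) with water and acetonitrile, each containing 0.1% formic acid. A coupled quadrupole time-of-flight mass spectrometer operated in positive and negative ionization mode. Retention time values come from computationally picked adduct peaks, each inspected manually.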

| SMILES | RP-LC retention time [s] |
| --- | --- |
| O=C(C1CCN(c2ccc(Sc3cccc(F)c3)nn2)CC1)N1CCN(c2ccccn2)CC1 | 626 |
| CCOc1ncccc1CNC(=O)c1ccc2cc[nH]c2c1 | 756 |
| Cc1cc(C)n2c(Nc3c(C)cccc3C)c(-c3ccc(Cl)cc3)nc2n1 | 815 |
| N#Cc1ccc(C(=O)NCc2cnoc2-c2ccc(F)cc2)cc1 | 848 |
| Cc1cc(C(=O)N2C[C@@H](F)C[C@H]2C(=O)N2CCc3ccccc3C2)n(C)n1 | 683 |
| Cn1cc(CC(=O)NCc2cc(F)cc(F)c2)c2cccnc21 | 702 |
| O=C(Cn1nc2c(cc1=O)CCCC2)NCCc1c[nH]c2ccc(F)cc12 | 753 |
| COc1cccc(N2CCN(C(=O)Cc3csc4nc(-c5ccccc5)cn34)CC2)c1 | 833 |
| O=C(Cn1cccc1-c1nnc(C2CCC2)o1)Nc1ccccc1 | 862 |
| CCOC(=O)c1ccc(NC(=O)Cn2nc3n(c2=O)CCCCC3)cc1 | 685 |
| Cc1ccc(-c2noc(C3CC(=O)N(c4ccc(C)c(F)c4)C3)n2)cc1 (stereo not given) | 1110 |
| CCN1C(=O)c2cccnc2Sc2cc(NC(=O)c3ccc(OC)c(F)c3)ccc21 | 836 |
| COc1cccc(C2CC(c3cccc(NS(C)(=O)=O)c3)=NN2C(=O)C(C)(C)C)c1O (stereo not given) | 820 |
| CCc1ccc(NS(=O)(=O)c2cc(-c3nc(C(C)C)cs3)cs2)cc1 | 1260 |
| Cc1ccc(NC(=O)N2CCOCCNC(=O)[C@H]3CCCC[C@H]32)cc1C | 829 |
| CC(C)NC(=O)c1nc(-c2ccnc(N3CCOCC3)c2)no1 | 671 |
| COc1ccc(-c2nnc(COc3ccc(NS(C)(=O)=O)cc3)o2)cc1 | 762 |
| O=C(NCc1cccc(Cl)c1)C1c2ccccc2CCN1C(=O)C1CC1 (stereo not given) | 838 |
| COc1cccc(S(=O)(=O)N2CCCN(C)c3ccccc32)c1 | 976 |
| CC(=O)N1c2ccc(S(=O)(=O)N(C)CC(=O)N3CCN(c4ccccn4)CC3)cc2CC1C (stereo not given) | 590 |
| CC(C)OC(=O)CSc1nnc2c(S(=O)(=O)N3CCN(c4ccc(F)cc4)CC3)cccn12 | 917 |
| CN1C(=O)C(CC(=O)N2CCCCCC2)Sc2ncccc21 (stereo not given) | 705 |
| Cn1c(=O)c(C(=O)NCc2ccc(F)cc2Cl)nc2cccnc21 | 824 |
| COc1ccc2c(c1)C1(CCN(C(=O)c3ccccc3OC)C1)C(=O)N2C (stereo not given) | 725 |

| SMILES | RP-LC retention time [s] |
| --- | --- |
| COC(=O)CNC(=O)N1CCN(c2nc3ccccc3n3cccc23)CC1 | 590 |
| O=C(NC1CCN(C(=O)c2cc(-c3cccs3)[nH]n2)CC1)c1cccs1 | 695 |
| CCCNC(=O)C1CCN(c2ccc(SCC(=O)Nc3cccc(SC)c3)nn2)CC1 | 677 |
| CCSc1nc2ncc(-c3ccnc(N4CCN(C)CC4)n3)c(C)n2n1 | 808 |
| O=C(Cc1ccccc1Br)N1CCN(c2cc(-c3ccc(F)cc3)[nH]n2)CC1 | 867 |
| Cc1ccc(N(C)C(=O)C2CCCN(c3ncnc4c3nc3n4CCCCC3)C2)cc1C (stereo not given) | 897 |
| O=C(CN1CCC(c2nc(-c3ccccc3)no2)CC1)NC1CCCCC1 | 700 |
| CCNC(=O)N1CC(n2cc(C(=O)N(C)CCCc3c(C)nn(C)c3C)nn2)C1 | 569 |
| COc1ncccc1CNC(=O)c1sccc1C | 746 |
| COCCN1C(=O)CCc2cc(NC(=O)c3ccccc3Br)ccc21 | 746 |
| CN(CCNC(=O)c1ccc2[nH]c3c(c2c1)CN(C(=O)C1CCC1)CC3)C1CCCCC1 | 646 |
| COc1ccc(CNC(=O)c2ccc(CN3CC(=O)N4CCCCC4C3=O)cc2)cc1 (stereo not given) | 683 |
| COc1ccc(C2(C(=O)N3CCC(c4ncc(C)n4C(C)C)C3)CC2)cc1 (stereo not given) | 530 |
| COc1cc(C(=O)N(Cc2cccs2)C2CCS(=O)(=O)C2)cc(OC)c1OC (stereo not given) | 702 |
| Cc1ccccc1NC(=O)CN1C(=O)CC(C)S(=O)(=O)c2ccccc21 (stereo not given) | 760 |
| Cc1csc(-c2cc(S(=O)(=O)N3CCCCC3)c(C)n2C)n1 | 1040 |
| Cc1cn(C)c(CC(=O)NCc2cccs2)c1C(=O)O | 693 |
| CCN(CC)C(=O)c1c(C)sc2ccn(Cc3ccc(F)cc3)c(=O)c12 | 828 |
| COc1ccc2c(c1)C1(CCN(C(=O)Nc3ccc(F)cc3)C1)C(=O)N2 (stereo not given) | 683 |
| CCOc1ccccc1CNC(=O)C1CCN(Cc2cn(CC)c3ccc(OC)cc23)CC1 | 759 |
| O=C(O)c1ccccc1C(=O)Nc1cccc([N+](=O)[O-])c1 | 776 |
| COCCN(CC(=O)N1CCc2sccc2C1COc1ccc(Cl)cc1)C(=O)C1CC1 (stereo not given) | 931 |
| Cc1ccccc1CC(=O)Nc1cc(-c2nnc(C3CC3)o2)sc1C | 724 |

The next lines start with the values.

| RP-LC retention time [s] | SMILES |
| --- | --- |
| 720 | CC(C)NC[C@H](O)COc1cccc2ccccc12 |
| 842 | O=C(NCCc1ccsc1)Nc1ccccc1C(F)(F)F |
| 555 | Cc1cc(C(=O)N2CC(c3nc4ccccc4[nH]3)C2)no1 |
| 931 | Cc1ccccc1-n1ccn(Cc2nc(-c3cccc(Br)c3)no2)c(=O)c1=O |
| 838 | COc1cccc(C2C(C(=O)NCCC(C)C)c3ccccc3C(=O)N2C2CC2)c1 (stereo not given) |
| 674 | O=c1[nH]c2ccc(NCc3ccc(-c4ccccc4)cc3)cc2[nH]1 |
| 574 | O=C(NCc1ccccc1F)c1ccc2c(c1)ncn2CCN1CCCC1 |
| 660 | CCNC(=O)C1CCc2sc(C(=O)N(CC)CC)cc2C1 (stereo not given) |
| 699 | O=C(NC1CCN(c2cc(-c3ccc(F)cc3)[nH]n2)C1)c1cccs1 (stereo not given) |
| 615 | Cc1ccc2c(Nc3cc(F)cc(F)c3)c(C(=O)N3CCCC3)cnc2n1 |
| 1080 | COc1ccc(-c2nc(-c3ccc4oc(C)nc4c3)no2)cc1F |
| 592 | CN1CCN(C(=O)c2ccc(CN3CCN(Cc4ccc(F)cc4)C(=O)C3=O)cc2)CC1 |
| 813 | Cc1nsc2ncc(C(=O)N3CCOCC3)c(N3CCC(C(=O)Nc4ccccc4Br)CC3)c12 |
| 555 | c1csc(CN2CCC(c3nc(-c4cnccn4)n[nH]3)CC2)c1 |
| 1110 | CCCn1c(=O)c(C)nc2cc(-c3noc(-c4cc(OC)c(OC)c(OC)c4)n3)ccc21 |
| 1070 | Cc1cc(F)ccc1N1C(=O)CN(S(C)(=O)=O)CC1(C)C(=O)NC1CCCCCCC1 (stereo not given) |
| 1020 | CC(NC(=O)c1sc2ncccc2c1-n1cccc1)c1ccc2c(c1)OCCO2 (stereo not given) |
| 712 | C[C@@H]1CN(CCCn2c3ccccc3c3ccccc32)C[C@H](C)N1 |
| 922 | Cc1ccc(S(=O)(=O)N2CCN(S(=O)(=O)N3CCCCC3)CC2)cc1 |
| 877 | CSc1cccc(NC(=O)Cn2ccn3nc(-c4ccc(F)cc4)c(CO)c3c2=O)c1 |
| 676 | O=C(CCC1CCCN(c2cc(NC3CC3)ncn2)C1)NCc1ccc(F)cc1 (stereo not given) |
| 570 | Cc1noc(C)c1S(=O)(=O)N1CCc2nc[nH]c2C1 |

| RP-LC retention time [s] | SMILES |
| --- | --- |
| 1210 | O=C(Nc1ccc(Cl)cc1)c1cc2c(cc1O)[nH]c1ccccc12 |
| 877 | CS(=O)(=O)Nc1ccc(-c2noc(-c3cncc(Br)c3)n2)cc1 |
| 578 | O=C(Cn1ccc2ccn(Cc3cccnc3)c2c1=O)N1CCCC1 |
| 946 | CCCCn1cc(S(=O)(=O)NCc2ccccc2)c2cccnc21 |
| 556 | Cc1nc(-c2cnccn2)nc2c1CCC(=O)N2Cc1cccnc1 |
| 1160 | Cc1ccc2c(c1)sc1nc(C)c(S(=O)(=O)Nc3ccc(Cl)cc3)c(=O)n12 |
| 644 | CCCn1nc2n(c1=O)CCN(Cc1cn[nH]c1-c1ccc(C)c(C)c1)C2 |
| 1020 | COc1cc(OC)cc(-c2nnc(Cc3nc(-c4ccccc4Cl)no3)o2)c1 |
| 908 | CCC(=O)Nc1ccc(C2(C(=O)N3CCN(c4cccc(C)c4)CC3)CCC2)cc1 |
| 847 | CCOC(=O)CCCn1c(=O)c2cccn2c2ccc(F)cc21 |
| 589 | COc1ccc(-c2nc(N3CCN(C4CCCCC4)CC3)c3ccccc3n2)cc1 |
| 929 | Cc1cc(C(=O)N2c3ccccc3CC2c2nc(C3CC3)no2)nn1C (stereo not given) |
| 905 | CCn1cc2c(n1)c(=O)n(Cc1ccc(F)cc1)c(=O)n2CC(=O)Nc1cc(F)ccc1F |
| 758 | CC1=C(c2ccc(Cl)cc2)S(=O)(=O)N=C1N1CCCN(C(=O)C2CCCO2)CC1 (stereo not given) |
| 816 | COc1ccccc1CCC(=O)N1C[C@@H]2C[C@H](NC(=O)c3ccccc3)[C@H]1C2 |
| 1140 | O=C(Cn1nc2c3c4c(sc3ncn2c1=O)CCCC4)N1CCc2ccccc2C1 |
| 635 | O=C(Cc1ccccc1Cl)Nc1cc(N2CCOCC2)ncn1 |
| 636 | Cc1ccc(-c2nc3cnccn3c2NCCC(=O)NCC2CC2)cc1 |
| 618 | COc1ccc(C(=O)N2C[C@@H]3C[C@H]2C[C@@H]3NC(=O)c2cccnc2)cc1F |
| 707 | CC1CCN(C(=O)c2ccc3c(=O)n4c(nc3c2)CCCC4)CC1 |
| 570 | O=C(O)CC1CCCN(c2cn[nH]c(=O)c2)C1 (stereo not given) |
